For test [1], the target named is T1, SIK2 (Homo sapiens, UniProt Q9H0K1). Briefly: SIK2 Enzymatic Assay Version 1 (ADP Glo). Format: biochemical. The conditions noted are these: enzyme 0.6 nM, 160 μM ATP and 140 μM HDAC5tide (each 2× final concentration); 30 minutes pre-incubation, 4 hours; ADPGlo luminescence; read-out: SIK2 ADP Glo IC50 (μM) (Test Example 1). As for the experimental part:
All steps were performed at room temperature. Compounds were pre-plated onto an assay plate using an Echo acoustic dispenser (Labcyte, E550 or E555) at 20 nL per well. Enzyme prepared in Assay Buffer at 0.6 nM (2× final concentration) was added at 2 μL per well using the Multidrop Combi (Thermo Fisher—used for all additions in this assay) to the assay plate, spun for 1 min at 800-850 rpm (Allegra 6KR Beckman Coulter centrifuge), and incubated with compound for 30 minutes.
One column of wells was dedicated to a no-peptide negative control (containing only ATP). ADPGlo Reagent (prepared and aliquoted as per manufacturer instructions) was then added at 2 μL per well, spun and incubated for 40 min. ADPGlo Detection (prepared and aliquoted as per manufacturer instructions) was added at 2 μL per well to the assay plate, which was spun and incubated for at least 30 min. The plate was then read on the Pherastar (BMG Labtech) using a luminescence read. Gain was set by the 0.1 mM concentration of ADP wells in the ADP/ATP standard curve plate generated as per manufacturer instructions.
For orientation: ADP-Glo turns the ADP formed in a reaction into a luminescent signal.

The target in test [2] is T1, SIK2. The test can be described thus: SIK2 Enzymatic Assay High Version 2 (High ATP). In kind it is biochemical. The procedure, abridged:
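At room temperature, enzyme (6 nM, 2× final) was preincubated with compound for 30 min, then 6 mM ATP and 400 μM HDAC5tide (both 2× final) were added for 2 h. ADP formed was measured by ADP-Glo Max (2 h reagent, 1 h detection) using luminescence.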

As usually defined, the IC50 is the concentration that inhibits the measured activity by half.

T1 sequence (Q9H0K1 whole entry, species assumed): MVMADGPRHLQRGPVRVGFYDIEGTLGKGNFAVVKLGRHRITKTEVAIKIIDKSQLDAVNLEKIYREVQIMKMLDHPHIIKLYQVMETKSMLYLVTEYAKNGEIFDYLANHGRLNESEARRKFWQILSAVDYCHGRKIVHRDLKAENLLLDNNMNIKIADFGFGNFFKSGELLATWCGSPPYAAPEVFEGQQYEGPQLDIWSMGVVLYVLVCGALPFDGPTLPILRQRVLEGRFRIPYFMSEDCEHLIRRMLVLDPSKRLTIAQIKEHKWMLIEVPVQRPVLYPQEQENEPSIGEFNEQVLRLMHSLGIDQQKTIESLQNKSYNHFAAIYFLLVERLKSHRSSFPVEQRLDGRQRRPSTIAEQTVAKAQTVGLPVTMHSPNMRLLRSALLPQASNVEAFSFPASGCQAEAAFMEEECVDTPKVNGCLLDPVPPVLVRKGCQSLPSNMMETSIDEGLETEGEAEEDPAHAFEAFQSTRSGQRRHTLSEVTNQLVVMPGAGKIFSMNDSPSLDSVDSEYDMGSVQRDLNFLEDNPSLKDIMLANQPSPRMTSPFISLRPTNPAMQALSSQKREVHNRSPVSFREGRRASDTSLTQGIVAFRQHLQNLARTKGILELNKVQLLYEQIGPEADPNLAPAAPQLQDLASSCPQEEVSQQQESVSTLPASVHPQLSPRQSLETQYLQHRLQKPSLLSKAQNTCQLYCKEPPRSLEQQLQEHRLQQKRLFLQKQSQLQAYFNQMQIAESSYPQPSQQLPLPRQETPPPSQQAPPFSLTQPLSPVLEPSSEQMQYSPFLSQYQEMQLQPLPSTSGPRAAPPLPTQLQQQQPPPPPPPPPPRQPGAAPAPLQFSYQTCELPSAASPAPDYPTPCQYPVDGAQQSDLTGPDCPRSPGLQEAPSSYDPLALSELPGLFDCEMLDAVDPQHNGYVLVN

As to `C[C@@](O)(COc1cnc(C#N)cc1-c1ccn2nc(NC(=O)C3CC3)cc2c1)C(F)(F)F` (single isomer, unassigned) [Example 49, (*R)—N-(5-(2-Cyano-5-(3,3,3-trifluoro-2-hydroxy-2-methylpropoxy)pyridin-4-yl)pyrazolo[1,5-a]pyridin-2-yl)cyclopropanecarboxamide], the values for the IC50 on SIK2 [1] and at SIK2 [2] were 0.000957 µM and 25.2 nM, respectively.
As for `C[C@](O)(COc1cnc(C#N)cc1-c1ccn2nc(NC(=O)C3CC3)cc2c1)C(F)(F)F` (single isomer, unassigned) [Example 50, (*S)—N-(5-(2-Cyano-5-(3,3,3-trifluoro-2-hydroxy-2-methylpropoxy)pyridin-4-yl)pyrazolo[1,5-a]pyridin-2-yl)cyclopropanecarboxamide], the IC50 on SIK2 [1] is 0.00111 µM; on SIK2 [2], 21.9 nM.
With `CC(=O)N1CCC(Oc2cnc(C#N)cc2-c2ccn3nc(NC(=O)C4CC4)cc3c2)C1` (single isomer, unassigned) [Example 56, (*R)—N-(5-(5-((1-Acetylpyrrolidin-3-yl)oxy)-2-cyanopyridin-4-yl)pyrazolo[1,5-a]pyridin-2-yl)cyclopropanecarboxamide], the IC50 stood at 0.0036 µM on SIK2 [1] and 69.2 nM against SIK2 [2].
Consider `CC(=O)N1CCC(Oc2cnc(C#N)cc2-c2ccn3nc(NC(=O)C4CC4)cc3c2)C1` (single isomer, unassigned) [Example 57, (*S)—N-(5-(5-((1-Acetylpyrrolidin-3-yl)oxy)-2-cyanopyridin-4-yl)pyrazolo[1,5-a]pyridin-2-yl)cyclopropanecarboxamide], for which the IC50 was determined as 0.0103 µM at SIK2 [1] and 264 nM against SIK2 [2].
As for `CN1CCC(Oc2cnc(C#N)cc2-c2ccn3nc(NC(=O)C4CC4)cc3c2)C1` (single isomer, unassigned) [Example 58, (*R)—N-(5-(2-cyano-5-((1-methylpyrrolidin-3-yl)oxy)pyridin-4-yl)pyrazolo[1,5-a]pyridin-2-yl)cyclopropanecarboxamide], the figures for the IC50 on SIK2 [1] and against SIK2 [2] were 0.00431 µM and 99.9 nM, respectively.
Consider `CN1CCC(Oc2cnc(C#N)cc2-c2ccn3nc(NC(=O)C4CC4)cc3c2)C1` (single isomer, unassigned) [Example 59, (*S)—N-(5-(2-cyano-5-((1-methylpyrrolidin-3-yl)oxy)pyridin-4-yl)pyrazolo[1,5-a]pyridin-2-yl)cyclopropanecarboxamide], for which the results for the concentration for half-maximal inhibition (IC50) on SIK2 [1] and against SIK2 [2] were 0.0047 µM and 111 nM, respectively.
Turning to `Cc1cc(-c2ccn3nc(NC(=O)C4CC4)cc3c2)c(O[C@H]2CC[C@@H](O)C2)cn1` (single isomer, unassigned) [Example 179, cis-N-(5-(5-(((1*S,3*R)-3-hydroxycyclopentyl)oxy)-2-methylpyridin-4-yl)pyrazolo[1,5-a]pyridin-2-yl)cyclopropanecarboxamide], the results for the IC50 on SIK2 [1] and at SIK2 [2] were 0.00308 µM and 52.1 nM, respectively.
As for `Cc1cc(-c2ccn3nc(NC(=O)C4CC4)cc3c2)c(O[C@@H]2CC[C@H](O)C2)cn1` (single isomer, unassigned) [Example 180, cis-N-(5-(5-(((1*R,3*S)-3-hydroxycyclopentyl)oxy)-2-methylpyridin-4-yl)pyrazolo[1,5-a]pyridin-2-yl)cyclopropanecarboxamide], the IC50 at SIK2 [1] came to 0.00358 µM; on SIK2 [2], 60.9 nM.
Turning to `Cc1cc(-c2ccn3nc(NC(=O)C4CC4)cc3c2)c(O[C@@H]2CNC[C@H](C(F)(F)F)C2)cn1` (single isomer, unassigned) [Example 445, N-[5-[2-methyl-5-[[(3*S,5*R)-5-(trifluoromethyl)-3-piperidyl]oxy]-4-pyridyl]pyrazolo[1,5-a]pyridin-2-yl]cyclopropanecarboxamide], the IC50 worked out at 0.00109 µM at SIK2 [1] and 11.6 nM against SIK2 [2].
In the case of `C[C@@H](Oc1ccc(C#N)cc1-c1ccn2nc(NC(=O)C3CC3)cc2c1)[C@@H]1CNCCO1` (single isomer, unassigned) [Example 477, (2*R, 1*S)—N-[5-[5-cyano-2-(1-morpholin-2-ylethoxy)phenyl]pyrazolo[1,5-a]pyridin-2-yl]cyclopropanecarboxamide], the IC50 on SIK2 [1] amounted to 0.00442 µM; against SIK2 [2], 50.7 nM.
In the case of `Cc1cc(-c2ccn3nc(Nc4cc(C)nc(C)n4)cc3c2)c(OC[C@H]2CC[C@@H](O)CO2)cn1` (single isomer, unassigned) [Example 582, (3*R, 6*R)-6-[[4-[2-[(2,6-dimethylpyrimidin-4-yl)amino]pyrazolo[1,5-a]pyridin-5-yl]-6-methyl-3-pyridyl]oxymethyl]tetrahydropyran-3-ol], the results for the IC50 at SIK2 [1] and against SIK2 [2] were 0.00328 µM and 62.2 nM, respectively.
For `CN1C[C@@H]2C[C@H]1C[C@H]2Oc1cnc(C#N)cc1-c1ccn2nc(NC(=O)C3CC3)cc2c1` (single isomer, unassigned) [Example 595, (1*S, 4*S, 5*R)—N-[5-[2-cyano-5-[(2-methyl-2-azabicyclo[2.2.1]heptan-5-yl)oxy]-4-pyridyl]pyrazolo[1,5-a]pyridin-2-yl]cyclopropanecarboxamide], the half-maximal inhibitory concentration (IC50) at SIK2 [1] came to 0.000791 µM; on SIK2 [2], 18 nM.
With `N#Cc1cc(-c2ccn3nc(NC(=O)C4CC4)cc3c2)c(OCC2CCNC2)cn1` (stereo in doubt) [Example 45, N-[5-[2-Cyano-5-[[(3R)-pyrrolidin-3-yl]methoxy]-4-pyridyl]pyrazolo[1,5-a]pyridin-2-yl]cyclopropanecarboxamide], the values for the 50% inhibitory concentration (IC50) on SIK2 [1] and against SIK2 [2] were 0.00116 µM and 23.4 nM, respectively.
As for `Cc1cc(-c2ccn3nc(NC(=O)C4CC4)cc3c2)c(O[C@H]2CC[C@H](O)C2)cn1` (stereo in doubt) [Example 183, trans-N-(5-(5-(((1*S,3*S)-3-hydroxycyclopentyl)oxy)-2-methylpyridin-4-yl)pyrazolo[1,5-a]pyridin-2-yl)cyclopropanecarboxamide], the results for the half-inhibitory concentration (IC50) at SIK2 [1] and against SIK2 [2] were 0.00201 µM and 34.9 nM, respectively.
For `CN1CC[C@@H](COc2cnc(C#N)cc2-c2ccn3nc(NC(=O)C4CC4)cc3c2)C1` [Example 1, N-[5-[2-Cyano-5-[[(3R)-1-methylpyrrolidin-3-yl]methoxy]-4-pyridyl]pyrazolo[1,5-a]pyridin-2-yl]cyclopropanecarboxamide], the IC50 at SIK2 [1] is 0.00226 µM; at SIK2 [2], 59.1 nM.
The like results for `CN1CC[C@@H](COc2cnc(C#N)cc2-c2ccn3nc(Nc4cccnc4)cc3c2)C1` [Example 4, (R)-5-((1-methylpyrrolidin-3-yl)methoxy)-4-(2-(pyridin-3-ylamino)pyrazolo[1,5-a]pyridin-5-yl)picolinonitrile] were, in that order, 0.0039 µM and 74 nM.
As for `N#Cc1cc(-c2ccn3nc(NC(=O)C4CC4)cc3c2)c(O[C@H]2CCN(CC(F)(F)F)C2)cn1` [Example 5, N-[5-[2-cyano-5-[(3S)-1-(2,2,2-trifluoroethyl)pyrrolidin-3-yl]oxy-4-pyridyl]pyrazolo[1,5-a]pyridin-2-yl]cyclopropanecarboxamide], the half-maximal inhibitory concentration (IC50) was 0.000381 µM on SIK2 [1] and 7.74 nM against SIK2 [2].
Take `N#Cc1cc(-c2ccn3nc(NC(=O)C4CC4)cc3c2)c(O[C@H]2CCNC2)cn1` [Example 6, (S)—N-(5-(2-cyano-5-(pyrrolidin-3-yloxy)pyridin-4-yl)pyrazolo[1,5-a]pyridin-2-yl)cyclopropanecarboxamide]: the results for the IC50 at SIK2 [1] and against SIK2 [2] were 0.00149 µM and 11.2 nM, respectively.
For `N#Cc1cc(-c2ccn3nc(NC(=O)C4CC4)cc3c2)c(O[C@H]2CCN(C3CC3)C2)cn1` [Example 7, N-[5-[2-cyano-5-[(3S)-1-cyclopropylpyrrolidin-3-yl]oxy-4-pyridyl]pyrazolo[1,5-a]pyridin-2-yl]cyclopropanecarboxamide], the results for the IC50 at SIK2 [1] and against SIK2 [2] were 0.000725 µM and 29.9 nM, respectively.
As for `CN1CCC(Oc2cnc(C#N)cc2-c2ccn3nc(NC(=O)C4CC4)cc3c2)(C(F)(F)F)CC1` [Example 10, N-[5-[2-cyano-5-[[1-methyl-4-(trifluoromethyl)-4-piperidyl]oxy]-4-pyridyl]pyrazolo[1,5-a]pyridin-2-yl]cyclopropanecarboxamide], the values for the half-inhibitory concentration (IC50) on SIK2 [1] and on SIK2 [2] were 0.204 µM and 4870 nM, respectively.
With `CN1CC[C@@H](Oc2cnc(C#N)cc2-c2ccn3nc(NC(=O)C4CC4)cc3c2)C(F)(F)C1` [Example 11, N-[5-[2-cyano-5-[[(4R)-3,3-difluoro-1-methyl-4-piperidyl]oxy]-4-pyridyl]pyrazolo[1,5-a]pyridin-2-yl]cyclopropanecarboxamide], the concentration for half-maximal inhibition (IC50) came to 0.0014 µM on SIK2 [1] and 31.6 nM on SIK2 [2].
As for `CN1C[C@H]2C[C@@H]1C[C@H]2Oc1cnc(C#N)cc1-c1ccn2nc(NC(=O)C3CC3)cc2c1` [Example 13, N-[5-[2-cyano-5-[[(1R,4R,5R)-2-methyl-2-azabicyclo[2.2.1]heptan-5-yl]oxy]-4-pyridyl]pyrazolo[1,5-a]pyridin-2-yl]cyclopropanecarboxamide], the IC50 was determined as 0.0208 µM on SIK2 [1] and 305 nM against SIK2 [2].
The like results for `N#Cc1cc(-c2ccn3nc(NC(=O)C4CC4)cc3c2)c(O[C@@H]2CCNCC2(F)F)cn1` [Example 15, N-[5-[2-cyano-5-[[(4R)-3,3-difluoro-4-piperidyl]oxy]-4-pyridyl]pyrazolo[1,5-a]pyridin-2-yl]cyclopropanecarboxamide] were, in that order, 0.0027 µM and 39.9 nM.
